We go through four compounds from article PMC6320938 (Molecules, 2018).

One series can be described thus: in vivo. The settings on record: for AUC(0-t): AUC0–t; for AUC(0-inf): AUC0–∞; for MRT inf: MRT0–∞. From the text: The validated UPLC-MS/MS method was used to measure atractylenolides I, II, and III, and atractyloside A simultaneously in rat plasma after oral administration of raw and wheat bran-processed Atractylodis Rhizoma at a dose of 3.75 g/kg. The integrated pharmacokinetics data were estimated by Drug and Statistics 3.0 (BioGuider Medicinal Technology Co. Ltd, Shanghai, China).
A UPLC system (Acquity, Waters, Milford, MA, USA) coupled with a mass spectrometer detector (XEVO-TQ-S, Waters) was used. The separation was performed on an Acquity UPLC BEH C18 column (Waters; 2.1 × 100 mm, 1.7 µm). The mobile phase consisted of acetonitrile (solution A) and ultrapure water with 0.1% methanoic acid (solution B). […] The mobile phase was delivered at a flow rate of 0.30 mL/min. The column and autosampler temperature were maintained at 40 and 10 °C, respectively. The injection volume was 2 µL and the eluent was detected by mass spectrometry with electrospray ionization (ESI) in positive scan mode. The optimized detector parameters were as follows: positive ESI with a capillary voltage of 3.0 kV; desolvation temperature of 400 °C; desolvation gas flow of 800 L/h, core gas flow of 150 L/h, and nebulizer gas flow of 7 bar. Selected multiple reaction monitoring (MRM), using the precursor to product ion combinations of m/z 233.3→187.2, 231.2→185.2, 249.2→231.2, 471.3→203.2, 151.9→110.16, was used to detect atractylenolides I, II, and III, atractyloside A, and the internal standard (IS), acetaminophen, respectively (Table 8).
Plasma samples were extracted by methanol precipitation. The plasma sample (200 µL) was spiked with IS solution (100 µL, 52 ng/mL), extracted with methanol (800 µL) by vortexing for 2 min, centrifuged at 17,108× g for 10 min, and then evaporated to dryness under a gentle stream of nitrogen. The residue was reconstituted in the mobile phase (100 µL), vortexed for 1 min, and centrifuged at 17,108× g for 10 min. Finally, the supernatant (3 µL) was injected into the UPLC-MS/MS system for analysis.
Ten rats were randomly divided into two groups (five per group). The two groups were orally administered raw Atractylodis Rhizoma at a dose of 3.75 g/kg (equal to 0.48, 0.6, 0.68, and 3.11 mg/kg of atractylenolides I, II, and III, and atractyloside A, respectively), and wheat bran-processed Atractylodis Rhizoma extract solution (equal to 0.46, 0.75, 0.56, and 3.03 mg/kg of atractylenolides I, II, and III, and atractyloside A, respectively). Plasma samples (0.3 mL) were collected in heparinized tubes from the orbital sinus at […], 0.25, 0.5, 1, 1.5,2, 3, 4, 6, 8, 10, and 12 h, and were then immediately centrifuged at 17,108× g for 10 min. The supernatant was transferred to clean test tubes and stored at −20 °C until analysis. Pharmacokinetic parameters, including the area under the blood concentration-time curve (AUC0–∞), elimination half-life (t1/2), apparent volume of distribution (Vd/F), and oral clearance (CL/F) were calculated by a noncompartmental method using Drug and Statistics 3.0 (Chinese Pharmacological Society, Shanghai, China). Other parameters were obtained directly from the experimental observations.
The pharmacokinetic parameters of atractylenolides I, II, and III, and atractyloside A were analyzed by using the one-way ANOVA test with SPSS 17.0 (SPSS Inc., Chicago, IL, USA) and linear regression analysis. The integrated concentrations at each time point for the four compounds were calculated based on the AUC weighting approach using equations (1)–(3). The weighting coefficient (Wj) and the total concentration of each compound (∑AUC0–∞) were calculated by: (1) w1=AUC0–∞/∑AUC0–∞ ∑AUC0–∞ = AUC0–∞ AT-I + AUC0–∞ AT-II + AUC0–∞ AT-III + AUC0–∞ atractyloside A(2)

Series [1] relates to ear edema induced by xylene. Further details: method as in PMID 19023804. The conditions noted are these: ear edema induced by xylene in mice; cited from earlier work.
The test system of a further series is HL-60 cells. The settings on record: via Cu, Zn-superoxide dismutase inhibition; cited from earlier work.
Series [2] concerns rhubarb-induced spleen deficiency. Further details: method as in PMID 24815219. The conditions noted are these: rhubarb-induced spleen deficiency in rats; cited from earlier work.
Series [3] in a line: Freeze-thaw stability in rat plasma. Type of series: in vitro ADME. The settings on record: for One Time Measured C / Two Time Measured C / Zero Time Measured C: freeze-thaw (−20 °C / room temperature); for RE: freeze-thaw stability. As for the experimental part: […] Unextracted QC samples of the four compounds at low, medium, and high concentrations were kept at ambient temperature (25 °C) for 6 h to determine the short-term stability of the compounds in rat plasma. The samples were processed and analyzed, and then the concentrations were compared with the nominal values of the QC samples. […] In each cycle, the QC samples were stored at −20 °C for 24 h and thawed unassisted at room temperature. When completely thawed, the samples were refrozen within 24 h. […] Stability was assessed by comparing the mean concentration of the stored QC samples with the mean concentration of freshly prepared QC samples.

Series [4] can be described thus: Short-term stability in rat plasma at room temperature. The class given is in vitro ADME. The settings on record: for RE: room temperature stability; for 0 h Measured C / 4 h Measured C / 6 h Measured C: room temperature. As to the method:
The stabilities of atractylenolides I, II, and III, and atractyloside A in rat plasma were evaluated at three different QC concentrations using six replicates under two conditions, including at 25 °C for 6 h, and three freeze and thaw cycles. Unextracted QC samples of the four compounds at low, medium, and high concentrations were kept at ambient temperature (25 °C) for 6 h to determine the short-term stability of the compounds in rat plasma. The samples were processed and analyzed, and then the concentrations were compared with the nominal values of the QC samples. The stabilities of the plasma samples after three freeze and thaw cycles were determined. In each cycle, the QC samples were stored at −20 °C for 24 h and thawed unassisted at room temperature. When completely thawed, the samples were refrozen within 24 h. The cycle was repeated three times and the samples were analyzed after the third cycle. Stability was assessed by comparing the mean concentration of the stored QC samples with the mean concentration of freshly prepared QC samples.

On the set-up of series [5]: method as in PMID 27019565. The conditions noted are these: oral raw vs wheat bran-processed Atractylodis Rhizoma; cited from earlier work.
Setting [6] is: high QC: added 140 (atractylenolide I), 200 (II, III), 172 (atractyloside A) ng/mL.
Where [7] appears, read: low QC: added 5.6 (atractylenolide I), 8 (II, III), 6.88 (atractyloside A) ng/mL.
[8] abbreviates: medium QC: added 28 (atractylenolide I), 40 (II, III), 17.2 (atractyloside A) ng/mL.
The mark [9] stands for this setting: rat, in vivo, po, 3.75 g/kg, rat plasma, oral raw Atractylodis Rhizoma 3.75 g/kg, mean ± SD, n = 5.
Setting [10] is: rat, in vivo, po, 3.75 g/kg, rat plasma, oral wheat bran-processed Atractylodis Rhizoma 3.75 g/kg, mean ± SD, n = 5.

A word on the Cmax: it is the highest concentration seen after dosing. Usually AUC(0-t) stands for the area under the concentration-time curve up to a stated or last time point. In general, AUC(0-inf) refers to the area under the concentration-time curve extrapolated to infinity. As usually defined, the MRT inf is a mean duration of stay, worked out from the concentration-time curve. The Tmax is the time at which the peak concentration occurs. The term half-life denotes the time needed for the level to fall by half in the phase considered. `C=C1CCC[C@]2(C)C[C@]3(O)OC(=O)C(C)=C3C[C@@H]12` [Atractylenolide III]: in “in vivo” (rat, in vivo, po, 3.75 g/kg), the “AUC0–t” value is on record as 284.83 ± 32.94 * h·μg/L, the Cmax is 113.10 ± 19.04 ng/mL, the “MRT0–∞” value is reported as 3.07 ± 0.31 h and the t1/2 amounted to 1.81 ± 0.79 h. In addition, in “in vivo” (rat, in vivo, po, 3.75 g/kg), the AUC(0-t) came to 231 ± 76.8 ng·h/mL, the AUC(0-inf) amounted to 233 ng·h/mL, the mean residence time (MRT inf) was found to be 3.48 ± 0.29 h and the Tmax stood at 1 h. Besides, in the series “in vivo” (rat, in vivo, po, 3.75 g/kg, Cmax), the Cmax amounted to 87 ± 17 ng/mL. Also, the half-life in “in vivo” (rat, in vivo, po, 3.75 g/kg, t1/2) is 1.56 ± 0.61 h. Moreover, the anti-inflammatory activity result in series [1] is given as “inhibition of ear edema”.

Regarding `C=C1CCC[C@]2(C)C=C3OC(=O)C(C)=C3C[C@@H]12` [Atractylenolide I], in the series with HL-60 cells, the “anticancer activity (apoptosis)” value is on record as “inducing apoptosis”. In series [1], the anti-inflammatory activity result is given as “inhibition of ear edema”. In series [2], the “treatment of spleen deficiency” value is given as “can be used to treat rhubarb-induced spleen deficiency”.

Take `CC(C)(OC1OC(CO)C(O)C(O)C1O)C1CCC(O)(CO)C2CC(=O)C(C)(O)C2C1` (stereo not drawn) [Atractyloside A]: the “One Time Measured C” value in series [3] (setting [6]) is given as 171.48 ng/mL; in series [3] (setting [7]), 6.38 ng/mL; in series [3] (setting [8]), 17.36 ng/mL. Also, the “Two Time Measured C” value in series [3] (setting [6]) is 171.65 ng/mL; in series [3] (setting [7]), 6.02 ng/mL; in series [3] (setting [8]), 17.02 ng/mL. Also, the “Zero Time Measured C” value in series [3] (setting [6]) came to 172.73 ng/mL; in series [3] (setting [7]), 6.39 ng/mL; in series [3] (setting [8]), 17.86 ng/mL. The RE in series [3] (setting [6]) is reported as −0.03%; in series [3] (setting [7]), −8.96%; in series [3] (setting [8]), 1.24%; in series [4] (setting [6]), −0.17%; in series [4] (setting [7]), −6.2%; in series [4] (setting [8]) it was −0.85%. The “0 h Measured C” value in series [4] (setting [6]) was 172.31 ng/mL; in series [4] (setting [7]), 6.81 ng/mL; in series [4] (setting [8]), 17.16 ng/mL. Moreover, the figures for the “4 h Measured C” value in series [4] (setting [6]), in series [4] (setting [7]) and in series [4] (setting [8]) were 171.50 ng/mL, 6.41 ng/mL and 17.02 ng/mL, respectively. The “6 h Measured C” value was 171.32 ng/mL in series [4] (setting [6]), 6.14 ng/mL in series [4] (setting [7]) and 16.98 ng/mL in series [4] (setting [8]). Moreover, in the series “in vivo” (rat plasma, oral 3.75 g/kg), the “Cmax ratio, wheat bran-processed group vs raw group” value was 1.20 fold. Further, the results for the AUC(0-t) in the series “in vivo” (setting [9]) and in the series “in vivo” (setting [10]) were 138 ± 60.1 ng·h/mL and 307 ± 73.8 ng·h/mL, respectively. Further, the AUC(0-inf) in “in vivo” (rat, in vivo, po, 3.75 g/kg, Table 6, rat plasma, oral raw Atractylodis Rhizoma 3.75 g/kg) was 167 ng·h/mL; in the series “in vivo” (rat, in vivo, po, 3.75 g/kg, Table 6, rat plasma, oral wheat bran-processed Atractylodis Rhizoma 3.75 g/kg) it was 325 ng·h/mL; in “in vivo” (setting [9]) it was 167 ± 90.1 ng·h/mL; in the series “in vivo” (setting [10]), 325 ± 72.1 ng·h/mL. For the same compound, the Cmax in the series “in vivo” (rat, in vivo, po, 3.75 g/kg, Cmax, rat plasma, oral raw Atractylodis Rhizoma 3.75 g/kg, mean ± SD, n = 5) is 57.8 ± 21.6 ng/mL; in “in vivo” (rat, in vivo, po, 3.75 g/kg, Cmax, rat plasma, oral wheat bran-processed Atractylodis Rhizoma 3.75 g/kg, mean ± SD, n = 5), 69.4 ± 8.29 ng/mL. In addition, the MRT inf in “in vivo” (setting [9]) worked out at 6.05 ± 2.58 h; in the series “in vivo” (setting [10]), 4.87 ± 0.84 h. Besides, the Tmax was 0.95 ± 0.11 h in the series “in vivo” (setting [9]) and 1.5 h in “in vivo” (setting [10]). For the same compound, the half-life in the series “in vivo” (rat, in vivo, po, 3.75 g/kg, t1/2, rat plasma, oral raw Atractylodis Rhizoma 3.75 g/kg, mean ± SD, n = 5) was 3.95 ± 2.22 h; in the series “in vivo” (rat, in vivo, po, 3.75 g/kg, t1/2, rat plasma, oral wheat bran-processed Atractylodis Rhizoma 3.75 g/kg, mean ± SD, n = 5) it was 2.55 ± 0.98 h.

As to `C/C=C/C#CC#C/C=C/c1ccco1` [atractylodin], the “effect of stir-frying the rhizome with wheat bran on absorption” value in series [5] is “promoted and accelerated the absorption”.
